Measured values from patent publication US8414871B2, “Controlled releases of actives in skin” (priority 2002, dated 2013).

How the values were obtained:
[1] = Dye penetration into skin layers, fluorescent microscopy of cryosectioned skin after passive permeation
Experimental: Human skin: The full thickness dermatomed (˜500 μm) human skin derived from the abdominal regions of female Caucasian cadavers were obtained from AlloSource (Englewood, Colo.) and stored at −80° C. Just before each experiment, the skin was allowed to thaw to room temperature and then used immediately for in vitro transport studies.
The receptor compartments were filled with 0.155 M phosphate buffered saline (pH 7.4, 5.1 mL), which was stirred at 600 rpm. The fluid in each receptor compartment was maintained at 37±0.5° C. by the use of a thermostatic water pump (Haake DC10, Karlsruhe, Germany) that circulated water through the jacket surrounding each main chamber. […] The skins were initially left in the Franz cells for 1 h in order to facilitate hydration of the membranes.
In all experiments, the donor compartment of the sampling port of each Franz cell was covered with a taught layer of Parafilm®, and the whole set up was roofed with aluminum foil to prevent the dye bleaching. Each permeation experiment was conducted in sextuplicate or quadruplicate (in case of time-dependency experiments).
At the end of the permeation experiment, the excess formulation was removed from the skin surface, skin sections were detached from the diffusion cells, washed three times with PBS, and dried gently with delicate task wipers (Kimwipes). The skins were frozen at −20° C., and 0.2×0.5 cm piece from the treated area was cut out and imbedded in optimal cutting temperature compound (OCT). A cryostat (Leica Cryostat CM 3050S, Wetzlar, Germany) was used to prepare the cross-section of full skin perpendicular to the skin surface. Nine to twelve vertical sections with a thickness of 20 μm each were obtained and stored at −4° C. till analyzed microscopically.
Fluorescent microscopy. Skin sections were subjected to both fluorescent and phase-contrast microscopy using Olympus CK40 microscope equipped with a UV source and filters for fluorescent measurement. Image capture and analysis were carried out using Olympus Microsuite™ B35V program. […] Images were recorded setting the camera integration time of 500 ms. The same parameters were used for imaging all samples and no corrections for the background fluorescence were made.
Quantitative analysis of dye penetration into skin was obtained by calculating pixel intensities from fluorescence measurements of skin sections. Image analysis was carried out for the epidermis (EP; consisting of stratum corneum and the viable epidermis), superficial dermis (SD) and lower dermis (LD) as schematically represented in FIG. 5. The superficial dermis is defined as the region measuring around 100 μm below the epidermis and the lower dermis is the remaining portion of the dermis below the superficial dermis.
H&E staining of the skin section (FIG. 5) was used to define the above layers for which quantitative analysis of dyes penetration was carried out.

[2] = Solute binding efficiency of nanospheres (HPLC); type: physicochemical
Experimental: The concentrations of the solutes were assayed by high-performance liquid chromatography (HPLC) using a Waters 2695 HPLC system equipped with UV/vis detector (Waters 2487, Dual 1 Absorbance Detector). Chromatographic separations were achieved using a RP-C18 column (Perkin-Elmer Brownlee Analytical C-18 column, 33 mm×4.6 mm) at 25° C. […] The mobile phase was delivered at a flow rate of 1 mL/min. […] Standard calibration samples were prepared at concentrations ranging from 1 to 50 μg/mL for all solutes. […] In addition, the specificity was determined by comparing the results obtained in the analysis of placebo supernatant, containing only nanospheres, with those obtained in the analysis of all standard solutions of the solutes and no interference from nanospheres was observed. To determine the solute binding efficiency, a predetermined aliquot of the purified nanosphere-solute complex suspension was withdrawn and freeze-dried, and the dry residue was accurately weighted before thoroughly dissolving in the extraction solvent. […] Solutes complexation by the nanospheres was characterized by the following ratio: [formula] Solutions of each solute in propylene glycol (PG) were prepared by stirring an excess of the molecule in PG at room temperature for 24 h. The samples were filtered through 0.22%μm PVDF syringe filters (Millipore, Bedford, Mass.), and the filtrates were used for all subsequent characterizations and experiments. For passive permeation experiments, the equal concentration (confirmed using RP-HPLC) of all solutes in both PG and nanospheres was achieved by subsequent dilution of either PG-solute solution with PG or NSP-solute formulation with PBS.

| final concentration of solutes in nanospheres solutions [2] | change in dye penetration from EP to LD [1] | SMILES | decrease of dye penetration from EP into the dermis [1] | decrease of fluorescence intensities from EP to LD ([1]; 24 hrs, NSP-dye formulations) | PE (penetration effect), fluorescence in epidermis ([1]; female, human, 24 h, pH 7.4) |
| --- | --- | --- | --- | --- | --- |
| 190 µg/mL |  | COc1cc(/C=C/C(=O)CC(=O)/C=C/c2ccc(O)c(OC)c2)ccc1O [curcumin] |  |  |  |
| 180 µg/mL | increase | CCCCCCCCCCCC(=O)Nc1ccc2c(c1)C(=O)OC21c2ccc(O)cc2Oc2cc(O)ccc21 [DAF, 5-Dodecanoylaminofluorescein] | about two and a half fold |  |  |

| SMILES | final concentration of solutes in nanospheres solutions [2] | change in dye penetration from EP to LD [1] | decrease of dye penetration from EP into the dermis [1] | decrease of fluorescence intensities from EP to LD ([1]; 24 hrs, NSP-dye formulations) | PE (penetration effect), fluorescence in epidermis ([1]; female, human, 24 h, pH 7.4) |
| --- | --- | --- | --- | --- | --- |
| CCN(CC)c1ccc2nc3c4ccccc4c(=O)cc-3oc2c1 [NR, Nile Red] | 200 µg/mL |  | about five fold | 2.5 fold | 48.6±1.3 ABU |
